Measured values: PMC8759724 (Journal of Enzyme Inhibition and Medicinal Chemistry, 2021)

Tests used:
[1] = target: WT PfDHFR (Plasmodium falciparum, UniProt P13922, N108S/R59C); experiment: Differential scanning fluorimetry; type: binding; conditions: DSF, apo PfDHFR (no NADPH added with the ligand)
[2] = target: WT PfDHFR (Plasmodium falciparum, UniProt P13922); experiment: PfDHFR activity assay; type: biochemical

Row | Compound | ΔTm (melting temperature variation) [1] | IC50 [2] [µM]
1 | Nc1nc(=O)c2c([nH]1)NCC(CNc1ccc(C(=O)N[C@@H](CCC(=O)O)C(=O)O)cc1)=N2 [DHF, dihydrofolate] | minor melting temperature variations | –
2 | tetrahydrofolate [THF] | minor melting temperature variations | –
3 | NC(=O)Nc1cccc(C(F)(F)F)c1 [fragment 148, [3-(trifluoromethyl)phenyl]urea] | – | 464
4 | NC(=O)C1=CN([C@@H]2O[C@H](COP(=O)(O)OP(=O)(O)OC[C@H]3O[C@@H](n4cnc5c(N)ncnc54)[C@H](OP(=O)(O)O)[C@@H]3O)[C@@H](O)[C@H]2O)C=CC1 [NADPH] | +4 °C | –
